Test [1] has as its system Siglec-F lo IL5Rα hi positive cells (developing B cells, basophils and other cell populations). Particulars: mice, 30 mg/kg or 100 mg/kg daily gavage, 70 days, either dose. Here is the method: (§1) The study consisted of 3 groups of BALB/cByJ mice (10 mice per group). Mice received daily gavage treatments of either 30 mg/kg, 100 mg/kg of dexpramipexole or vehicle control for 70 days. Bone marrow was processed into single cell suspensions and cells were stained with fluorescent conjugate antibodies to analyze the developmental stages of cells by flow cytometry. […] The columns depict the mean for each group and the error bar indicates the standard error of the mean. The asterisks denote statistical significance between treatment groups and the vehicle control group by one-way ANOVA (* p≦0.05, ** p≦0.01).

Test [2] has as its system Sca1+ c-Kit+ lineage negative cells (multipotent hematopoietic stem cells). The following applies: mice, 30 mg/kg or 100 mg/kg daily gavage, 70 days, either dose. Here is the method: as §1
The test system of test [3] is eosinophils. It is filed as in vivo. The following applies: minipigs, 7.5, 25, 75/50 mg/kg daily oral gavage, 39 weeks. Here is the method: In a 39-week repeat-dose toxicology study, minipigs were dosed at 0, 7.5, 25, and 75 mg/kg dexpramipexole by daily oral gavage through Study Day 45 and at 0, 7.5, 25, and 50 mg/kg dexpramipexole from Study Day 46 to study completion.

The subject of test [4] is eosinophils. As for the experimental part: (§2) In FIG. 2A the time period marked “W” represents the end of the 4-week washout following the month 3 time point.
The Phase 2 trial was a two-part, double-blind study that evaluated the safety, tolerability, and clinical effects of dexpramipexole in ALS patients.
In Part 1, subjects were randomized to placebo (n=27), 50 mg/day (n=23), 150 mg/day (n=26), or 300 mg/day dexpramipexole (n=26) for 12 weeks.

Test [5] relates to myeloid and lymphoid cell types, red blood cells, platelets. The following applies: Phase 3, 300 mg daily, month 6. Here is the method:
Hematological parameters were measured in a Phase 3 study of dexpramipexole in ALS. Because of the high rate of mortality among ALS patients, including subjects in the Phase 3 trial, hematology parameters obtained at the month 6 visit were chosen for analysis to remove the effect of study dropouts in later months.

The test system of test [6] is eosinophils. Here is the method:
as §2
The phase 3 clinical trial was a double-blind study of dexpramipexole in ALS patients randomized 1:1 to placebo or dexpramipexole 300 mg daily treatment. Hematology parameters were collected as part of routine safety monitoring. Eosinophil and basophil counts were retrospectively analyzed by visit.
Eosinophil levels were summarized over available time points and analyzed by ANOVA testing the effect of treatment vs. placebo on mean changes in serum eosinophil counts from baseline. Subjects with baseline eosinophils from 0 to 0.02×10^9/L (constituting less than 2% of all subjects analyzed) were censored from the primary analysis because of the inherent limitation to observe a decline from baseline.
Statistical analysis of the change from baseline was performed at month 6 to remove the effect of study dropouts in later months.
The source holds these as a separate data set.

The structures appear in SMILES notation.

In the case of `CCCN[C@@H]1CCc2nc(N)sc2C1` [dexpramipexole, (6R)-2-amino-4,5,6,7-tetrahydro-6-(propylamino) benzothiazole], in test [1], the “Siglec-F lo IL5Rα hi positive cells in bone marrow vs vehicle control” value is reported as “lowered”. Also, the “number of Sca1+ c-Kit+ lineage negative cells in bone marrow vs vehicle control” value in test [2] is “lowered”. Further, the effect on eosinophils entry with eosinophils [3] was “dose- and time-dependent reduction in eosinophils”. In the test with eosinophils [4] (Phase 2 trial in ALS subjects), the “effect on eosinophil counts” value was “dose- and time-dependent decrease in eosinophil counts”. The “eosinophil counts in subject with hypereosinophilia at baseline” value with eosinophils [4] (one Phase 2 subject, Part 2 baseline, through month 12) was “decrease in eosinophil counts”. Moreover, the “change of all myeloid and lymphoid cell types measured” value in test [5] was “statistically significant mean reductions from baseline”. Also, the “peripheral blood eosinophil count” value with eosinophils [6] (Phase 3, after 8-12 weeks of treatment, persisted for the duration of the trial) is “profound decrease”. Further, in the test with eosinophils [6] (Phase 3 subject with highest baseline eosinophil count, through month 12), the “eosinophil counts in subject with elevated eosinophil counts at baseline” value was “decrease in eosinophil counts”.
